Results published in the NIST ThermoML archive (doi:10.1016/j.jct.2004.10.011).

Conditions: Liquid, Vibrating tube method

Cc1ccccc1 [toluene]
mass density [kg/m3]
Conditions	298.15 K	308.15 K	318.15 K	328.15 K
100 kPa	862.1	853	843.8	834.5
2130 kPa	863.6	854.5	845.6	836.5
4150 kPa	865.2	856.2	847.3	838.3
6180 kPa	866.7	857.8	849	840.1
8210 kPa	868.2	859.3	850.6	841.8
10230 kPa	869.6	860.9	852.3	843.5
11250 kPa	870.4	861.7	853.1	844.4
12260 kPa	871.1	862.4	853.9	845.2
14290 kPa	872.5	863.9	855.4	846.9
16310 kPa	873.9	865.4	857	848.6
18340 kPa	875.3	866.8	858.5	850.1
20370 kPa	876.7	868.2	860	851.7
22390 kPa	878	869.6	861.5	853.3
24420 kPa	879.3	871	862.9	854.8
26450 kPa	880.6	872.4	864.4	856.3
28470 kPa	881.9	873.8	865.8	857.8
29490 kPa	882.5	874.4	866.5	858.5
30500 kPa	883.2	875	867.2	859.3
32530 kPa	884.4	876.3	868.5	860.7
34550 kPa	885.6	877.6	869.9	862.1
36580 kPa	886.8	878.9	871.2	863.5
38600 kPa	888	880.1	872.5	864.9
39620 kPa	888.6	880.7	873.2	865.5

CCC(=O)c1ccccc1 [ethyl phenyl ketone]
mass density [kg/m3]
Conditions	298.15 K	308.15 K	318.15 K	328.15 K
100 kPa	1005.3	996.8	988.3	979.6
2130 kPa	1006.4	998	989.6	981.1
4150 kPa	1007.5	999.2	990.9	982.4
6180 kPa	1008.7	1000.4	992.1	983.7
8210 kPa	1009.8	1001.6	993.3	985
10230 kPa	1010.9	1002.8	994.6	986.2
11250 kPa	1011.5	1003.4	995.2	986.9
12260 kPa	1012.1	1003.9	995.8	987.5
14290 kPa	1013.2	1005.1	997	988.7
16310 kPa	1014.3	1006.2	998.1	990
18340 kPa	1015.3	1007.3	999.3	991.2
20370 kPa	1016.4	1008.4	1000.4	992.3
22390 kPa	1017.5	1009.5	1001.6	993.5
24420 kPa	1018.5	1010.6	1002.7	994.7
26450 kPa	1019.5	1011.7	1003.8	995.9
28470 kPa	1020.5	1012.8	1004.9	997.1
29490 kPa	1021	1013.2	1005.5	997.6
30500 kPa	1021.6	1013.8	1006	998.2
32530 kPa	1022.5	1014.8	1007.1	999.3
34550 kPa	1023.5	1015.8	1008.2	1000.4
36580 kPa	1024.5	1016.8	1009.2	1001.5
38600 kPa	1025.5	1017.9	1010.3	1002.6
39620 kPa	1025.9	1018.3	1010.8	1003.2
